Experimental data: US10738024B2, “Compounds for treatment of angiogenesis-mediated diseases” (Indiana University Research and Technology Corporation, priority 2013, dated 2020)

Tests used:
HUVECs [1] = assay: ALAMARBLUE proliferation assay in HUVECs; assay type: cell-based, human; details: Homo sapiens, HUVEC, 48 h, 50% growth inhibitory concentration, alamarBlue
Description: (§1) Particularly, in a 96-well clear bottom black plate, cells (2,500 cells per well) were seeded in a total volume of 100 μL EGM-2. After 24 hours of incubation of the plate at 37° C. and 5% CO2, a DMSO solution of synthetic cremastranone (1) or SH-11052 (2) was added in the concentration range of 0.5 nM to 500 μM (final DMSO concentration=1%). The plate was then further incubated for 48 hours before adding 11.1 μL of ALAMARBLUE® reagent to each well. Four hours after the addition of ALAMARBLUE®, fluorescence readings with excitation and emission wavelengths of 560 nm and 590 nm, respectively, were taken and the data were analyzed in GraphPad Prism software (v. 6.0). Dose response curves were generated and the GI50 values were calculated using the following equation: Y=100/(1+10^(X−Log GI50)).
(§2) For proliferation assays, cells (2500 per well) were seeded in a 96-well clear bottom black polystyrene plate in a total volume of 100 μL. HUVECs and HRECs were grown in EGM-2 and CSC+ media respectively, while 92-1 and Y79 cells were maintained in RPMI+10% FBS, penicillin/streptomycin and RB medium (IMDM+10% FBS+penicillin/streptomycin+10 μg/mL insulin+55 μM β-mercaptoethanol) respectively. After 24 hours of incubation of the plate at 37° C., the compounds were dissolved in DMSO and added in the concentration range of 500 μM to 0.5 nM. The plate was then incubated at 37° C. and 5% CO2 conditions for 48 hours before adding 11.1 μL of alamar blue reagent for each well. Four hours after the addition of ALAMARBLUE® reagent, fluorescence readings with excitation and emission wavelengths of 560 nm and 590 nm respectively were taken and the data was analyzed in GraphPad Prism software. The dose response curves were generated and the GI50 values were calculated using the equation: Y=100/(1+10^(X−Log GI50)) (Table 1).

HRECs = assay: ALAMARBLUE proliferation assay in HRECs; assay type: cell-based, human; details: Homo sapiens, HREC; 50% growth inhibitory concentration, 48 hours, alamarBlue; read-out: GI50 HREC
Description: as §1, §2

[2] = tested on: Y-79 retinoblastoma cells; assay: ALAMARBLUE proliferation assay in Y-79 retinoblastoma cells; assay type: cell-based; details: 50% growth inhibitory concentration, 48 hours
Description: as §2

[3] = tested on: 92-1 uveal melanoma cells; assay: ALAMARBLUE proliferation assay in 92-1 uveal melanoma cells; assay type: cell-based; details: 50% growth inhibitory concentration, 48 hours, alamarBlue
Description: as §2

HUVECs [4] = details: cited from earlier work
p21^WAF1 (CDKN1A) = details: natural source compound; cited from earlier work
Cdc2 (CDK1) = details: cited from earlier work
prostaglandin synthesis = details: microsome assay; cited from earlier work
cyclooxygenases 1 and 2 = details: purified enzymes; cited from earlier work
JNK, p38 MAPK, ERK = details: keratinocytes exposed to UV radiation; cited from earlier work
NF-κB = details: keratinocytes exposed to UV radiation; cited from earlier work
TNF-α, IL-6 and IL-8 = details: keratinocytes exposed to UV radiation; cited from earlier work
[5] = tested on: reactive oxygen species (ROS); details: keratinocytes exposed to UV radiation; cited from earlier work
[6] = tested on: new vessel growth induced by bFGF; details: chick chorioallantoic membrane model; cited from earlier work
[7] = tested on: pathogenic neovascularization; details: in vivo; cited from earlier work
[8] = tested on: choroidal neovascularization; details: murine; cited from earlier work
retina = details: injection of 10 μM into the vitreous of normal adult mice; cited from earlier work

Row | SMILES | GI50 [2] | GI50 [3] | GI50 (HUVECs [1]) | GI50 (HRECs) | also measured
1 | COc1ccc(/C=C2\COc3cc(OC)c(OC)c(OC)c3C2=O)cc1OCCN1CCCC1 [Compound 11k, (E)-5,6,7-trimethoxy-3-(4-methoxy-3-(2-(pyrrolidin-1-yl)ethoxy)benzylidene)chroman-4-one] | 3.2 µM | 6 µM | 3.5 µM | 0.185 µM | –
2 | COc1ccc(/C=C2\COc3cc(OC)c(OC)c(OC)c3C2=O)cc1OCC(=O)OC(C)(C)C [Compound 11l] | 21 µM | > 500 µM | 27 µM | > 500 µM | –
3 | COc1ccc(/C=C2\COc3cc(OC)c(OC)c(OC)c3C2=O)cc1OCC(=O)O [Compound 11m] | > 500 µM | > 500 µM | > 500 µM | > 500 µM | –
4 | COc1cc2c(c(OC)c1OC)C(=O)/C(=C/c1ccc(O)c(O)c1)CO2 [Compound 11n] | 13 µM | 13.7 µM | 4.1 µM | 6.4 µM | –
5 | COC(=O)c1cc(/C=C2\COc3cc(OC)c(OC)c(OC)c3C2=O)ccc1O [Compound 11o] | 2.3 µM | 8.2 µM | 2 µM | 4.7 µM | –
6 | COc1cc2c(c(OC)c1OC)C(=O)/C(=C/c1ccc(O)c(F)c1)CO2 [Compound 11p] | 22 µM | 30 µM | 9 µM | 19 µM | –
7 | COc1ccc(/C=C2\COc3cc(OC)c(OC)c(O)c3C2=O)cc1O [Compound 11q] | 6 µM | 11 µM | 5.4 µM | 7 µM | –
8 | COC(=O)c1cc(/C=C2\COc3cc(OC)c(OC)c(OC)c3C2=O)ccc1OC [Compound 11r] | 6 µM | > 100 µM | 3.2 µM | 5.5 µM | –
9 | COc1ccc(/C=C2\COc3cc(OC)c(OC)c(OC)c3C2=O)cc1F [Compound 11s] | 10 µM | 7 µM | 7.6 µM | 3.2 µM | –
10 | COc1cc2c(c(OC)c1OC)C(=O)/C(=C/c1ccc(OCc3ccccc3)c(OCc3ccccc3)c1)CO2 [Compound 11t] | 109 µM | > 250 µM | 64 µM | 160 µM | –
11 | COc1ccc(CC2COc3cc(O)c(OC)c(O)c3C2=O)cc1O (stereo not shown) [cremastranone, 5,7-dihydroxy-3-(3-hydroxy-4-methoxybenzyl)-6-methoxychroman-4-one] | – | – | – | – | 50% growth inhibitory (GI50) concentration value in HUVEC proliferation assay (HUVECs [4]; reported for compound isolated from C. appendiculata): low micromolar range; proliferation of HUVECs (HUVECs [4]; via G2/M phase cell cycle arrest): blockade of the proliferation; expression of p21^WAF1 (CDKN1A) (p21^WAF1 (CDKN1A)): induces expression; expression of Cdc2 (CDK1) (Cdc2 (CDK1)): down-regulated; prostaglandin synthesis from arachidonic acid (prostaglandin synthesis): blocked prostaglandin synthesis; function of cyclooxygenases 1 and 2 (cyclooxygenases 1 and 2): without marked effects; phosphorylation of MAPKs (JNK, p38, ERK) (JNK, p38 MAPK, ERK): decreased phosphorylation; nuclear translocation of NF-κB (NF-κB): blocked nuclear translocation; production of cytokines TNF-α, IL-6 and IL-8 (TNF-α, IL-6 and IL-8): blocked; production of reactive oxygen species (ROS) [5]: blocked; blocking new vessel growth induced by bFGF [6]: as effective as retinoic acid; blocking pathogenic neovascularization, oxygen-induced retinopathy model [7]: showed efficacy; blocking pathogenic neovascularization, laser photocoagulation model of choroidal neovascularization [8]: showed efficacy; apoptosis of retinal cells (retina): nor did it induce apoptosis; cytotoxic or inflammatory effects on the retina (retina): no cytotoxic or inflammatory effects

Further lines, with some results ahead:

Row | GI50 [2] | GI50 [3] | SMILES | GI50 (HUVECs [1]) | GI50 (HRECs) | also measured
12 | 9 µM | > 250 µM | COc1cc(/C=C2\COc3cc(OC)c(OC)c(OC)c3C2=O)cc(OC)c1OC [Compound 11u] | 10.4 µM | 16.6 µM | –
13 | 18 µM | 31 µM | COc1cc2c(c(OC)c1OC)C(=O)/C(=C/c1cccc(Cl)c1Cl)CO2 [Compound 11v] | 10.4 µM | 25.6 µM | –
14 | 154 µM | > 250 µM | COc1ccc(/C=C2\COc3cc(OC)c(OC)c(OC)c3C2=O)c(OC)c1OC [Compound 11w] | 45 µM | 91 µM | –
15 | 8 µM | 29 µM | COc1cc2c(c(OC)c1OC)C(=O)/C(=C/c1ccccc1[N+](=O)[O-])CO2 [Compound 11x] | 9 µM | 8.6 µM | –
16 | 33 µM | 145 µM | COc1ccc(/C=C2\CCOc3cc(OC)c(OC)c(OC)c3C2=O)cc1O [Compound 12, (E)-4-(3-hydroxy-4-methoxybenzylidene)-6,7,8-trimethoxy-3,4-dihydrobenzo[b]oxepin-5(2H)-one] | 30 µM | 35 µM | –
17 | 49 µM | 80 µM | COc1ccc(/C=C2\Cc3cc(OC)c(OC)c(OC)c3C2=O)cc1O [Compound 13, (E)-2-(3-hydroxy-4-methoxybenzylidene)-5,6,7-trimethoxy-2,3-dihydro-1H-inden-1-one] | 19 µM | 30 µM | –
18 | > 500 µM | 6 µM | COc1ccc(CN2CCc3cc(OC)c(OC)c(OC)c3C2=O)cc1OCc1ccccc1 [Compound 14, 2-(3-(Benzyloxy)-4-methoxybenzyl)-6,7,8-trimethoxy-3,4-dihydroisoquinolin-1(2H)-one] | 71 µM | 103 µM | –
19 | 13.5 µM | 78.5 µM | COc1cc(OC)c2c(c1)OC/C(=C\c1ccc(OC)c(O)c1)C2=O [Compound 15a] | 17.7 µM | 37 µM | –
20 | 4.2 µM | > 250 µM | COc1cc(OC)c2c(c1)OCC(Cc1ccc(OC)c(O)c1)C2=O (stereo not shown) [Compound 15b] | 6.8 µM | 1.6 µM | –
